Experiments:
[1] = tested on: inflammatory genes in activated MDM; assay: RNA-seq gene expression in activated MDM; assay type: cell-based, human; settings: LCC-12 10 μM; FIG. 4A-C
Procedure: Cell culture. Peripheral blood samples were collected from distinct healthy donors (Etablissement Français du Sang). Pan monocytes were isolated by negative magnetic sorting using microbeads according to the manufacturer's instructions (Miltenyi Biotec, 130-096-537), and cultured in RPMI 1640 supplemented with glutamine (Thermo Fisher Scientific, 61870010), 10% fetal bovine serum and exposed to granulocyte-macrophage colony-stimulating factor (GM-CSF, Miltenyi Biotec, 130-093-866, 100 ng/mL) to induce differentiation into macrophages (MDM). […]
RNA-seq. […] Sequencing was carried out on a NovaSeq 6000 instrument from Illumina based on a 2×100 cycle mode (paired-end reads, 100 bases). Raw sequencing reads were first checked for quality with Fastqc (0.11.8) and trimmed for adapter sequences with the trimGalore (0.6.2) software. Trimmed reads were then aligned on the human hg38 reference genome using the STAR mapper (2.6.1b), up to the generation of a raw count table per gene (GENCODE annotation v29). […] Raw data from (Fernandes et al., 2016, 7, e00027-16; Gongalves et al., 2020, Nat. Commun. 11, 2282) were downloaded from the NCBI Short Read Archive under records PRJNA528433 and PRJNA290995 and processed as described above. […] Differential expression was assessed with the limma voom framework (v 3.44.3) (Ritchie et al., 2015, Nucleic Acids Res. 43, e47). […]

[2] = tested on: EMT induction (E-cadherin, Fibronectin, Slug); assay: Western blot of epithelial and mesenchymal markers upon EMT induction; assay type: cell-based; settings: TGF-β or OSM; FIG. 8D
Procedure: Cell culture. MCF7 (ATCC) cells, DU-145 (ATCC) cells and FC1245 cells were cultured in Dulbecco's Modified Eagle Medium GlutaMAX (DMEM, ThermoFisher Scientific, 61965059) supplemented with 10% Fetal Bovine Serum (FBS, Gibco, 10270-106) and Penicillin-Streptomycin mixture (BioWhittaker/Lonza, DE17-602E) unless stated otherwise. Primary lung circulating tumor cells (Celprogen, 36107-34CTC, Lot 219411) were grown using stem cell complete media (Celprogen, M36102-29PS) until the third passage. Circulating cancer cells were grown in stem cell ECM T75-flasks (Celprogen, E36102-29-T75) and ECM 6-well plates (Celprogen, E36102-29-6Well). […]
Western Blotting. […] Proteins were solubilized in 2× Laemmli buffer containing benzonase (VWR, 70664-3, 1:100), extracts were incubated at 37° C. for 1 h, and quantified using a NanoDrop 2000 spectrophotometer (ThermoFisher Scientific). […] Antigens were detected using the SuperSignal West Pico PLUS chemiluminescent detection kits (ThermoFisher Scientific, 34580 and 34096). Signals were recorded using a Fusion Solo S Imaging System (Vilber) and quantified as indicated using ImageJ. […]

## N=C(N)NC(=N)NCCCCCCCCCCCCNC(=N)NC(=N)N [LCC-12, lipophilic copper clamp C12]
[1]
  expression of inflammatory genes compared to activated MDM: reduced expression of a subset of inflammatory genes
[2]
  EMT induction (E-cadherin, Fibronectin, Slug levels): antagonized EMT induction

Source: patent US20230416196A1, “DIMER OF BIGUANIDINES AND THEIR THERAPEUTIC USES” (INSTITUT CURIE, priority 2020, published 2023)
